Patent publication US20070093416A1, “Human beta-defensin secretion promoter” (priority 2003, published 2007)

Tested on: β-defensin-2
Assay: β-Defensin Secretion Promotion Confirmatory Test-3 (Concentration Dependency)
Format: in vivo, human
Details: 3 healthy adults
Description: To evaluate β-defensin secretion promotion effects and concentration dependency of an organic acid, the following tests were conducted using 3 healthy adults as subjects. Saliva secreted for 3 minutes from rested subjects was collected by a spitting method (hereunder, this is referred to as the control). Thereafter, 1 ml of 0.01 wt % malic acid (amount of malic acid ingested: 0.1 mg) was placed in the oral cavity, held for one minute, and then collected together with the secreted saliva. The concentration of β-defensin-2 in the saliva was measured by ELISA, and the amount of β-defensin-2 secreted over one minute using 0.1 mg of malic acid was calculated based on the formula below. Note that the saliva amount (ml) in the formula below was calculated based on the weight of the collected saliva (g) assuming 1 g of saliva=1 ml of saliva. The same test was conducted, respectively, using 0.05, 0.1, 0.2, 0.5, or 1 wt % malic acid aqueous solution (amounts of ingested: 0.5, 1, 2, 5, and 10 mg). [table]

O=C(O)CC(O)C(=O)O (centres unmarked) [malic acid]
amount of β-defensin-2 secreted in saliva (1 ml of 0.01-1 wt % malic acid aqueous solution (0.1-10 mg) held in oral cavity for one minute, FIG. 3): increases depending on the concentration | human β-defensin-2 secretion induction effect (concentration of 0.01% (amount ingested: 0.1 mg), 1 ml held in oral cavity for one minute): has a human β-defensin-2 secretion induction effect
